Paper PMC3938834, “De Novo Peptide Design and Experimental Validation of Histone Methyltransferase Inhibitors” (PLoS ONE, 2014)
Like-named read-outs stand apart in the source and are kept apart here. No end group written: not given here.

Assays:
[1] = tested on: EZH2; conditions: small molecule inhibitor quoted for reference; cited from earlier work
Experimental: (§1) To quantitatively measure the inhibition properties of the designed sequences, peptide dose titrations were performed. The concentration of peptide required to suppress 50% of the enzymatic activity (i.e. half-maximal inhibitory concentration, ) and the Hill coefficient (measure of cooperativity of binding) were calculated (Table 2).

[2] = target: T1, EZH2 (reconstituted recombinant PRC2 containing full length EZH2, SUZ12, EED, RBAP46/48) (Homo sapiens, UniProt Q15910); test: radiometric EZH2 HMT enzymatic assay, 384-well Flashplate, 10-point dose titrations; assay type: biochemical
T1 construct: reconstituted recombinant PRC2 (containing full length EZH2, SUZ12, EED, RBAP46/48)
T1 sequence (Q15910 whole entry): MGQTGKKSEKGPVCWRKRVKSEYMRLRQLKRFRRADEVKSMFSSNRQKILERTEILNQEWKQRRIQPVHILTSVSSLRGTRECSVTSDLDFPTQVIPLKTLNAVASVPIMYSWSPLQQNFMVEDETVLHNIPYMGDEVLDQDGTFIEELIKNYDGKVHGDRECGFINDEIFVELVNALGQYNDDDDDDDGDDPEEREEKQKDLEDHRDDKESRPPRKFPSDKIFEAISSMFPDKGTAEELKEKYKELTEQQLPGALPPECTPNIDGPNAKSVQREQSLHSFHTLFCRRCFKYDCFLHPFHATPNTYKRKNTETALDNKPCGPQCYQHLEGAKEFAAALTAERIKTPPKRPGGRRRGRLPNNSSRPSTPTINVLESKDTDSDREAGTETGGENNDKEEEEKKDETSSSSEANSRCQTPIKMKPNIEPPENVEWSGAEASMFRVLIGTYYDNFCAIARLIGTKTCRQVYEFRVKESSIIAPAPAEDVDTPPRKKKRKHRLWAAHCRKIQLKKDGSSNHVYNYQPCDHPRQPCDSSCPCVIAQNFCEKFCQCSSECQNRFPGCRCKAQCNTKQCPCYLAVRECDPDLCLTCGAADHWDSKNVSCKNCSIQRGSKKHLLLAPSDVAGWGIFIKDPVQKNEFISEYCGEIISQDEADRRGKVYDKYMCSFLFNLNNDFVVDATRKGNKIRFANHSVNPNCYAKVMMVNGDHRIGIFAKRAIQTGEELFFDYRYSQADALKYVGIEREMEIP
T1 sequence (Q15022 whole entry partner): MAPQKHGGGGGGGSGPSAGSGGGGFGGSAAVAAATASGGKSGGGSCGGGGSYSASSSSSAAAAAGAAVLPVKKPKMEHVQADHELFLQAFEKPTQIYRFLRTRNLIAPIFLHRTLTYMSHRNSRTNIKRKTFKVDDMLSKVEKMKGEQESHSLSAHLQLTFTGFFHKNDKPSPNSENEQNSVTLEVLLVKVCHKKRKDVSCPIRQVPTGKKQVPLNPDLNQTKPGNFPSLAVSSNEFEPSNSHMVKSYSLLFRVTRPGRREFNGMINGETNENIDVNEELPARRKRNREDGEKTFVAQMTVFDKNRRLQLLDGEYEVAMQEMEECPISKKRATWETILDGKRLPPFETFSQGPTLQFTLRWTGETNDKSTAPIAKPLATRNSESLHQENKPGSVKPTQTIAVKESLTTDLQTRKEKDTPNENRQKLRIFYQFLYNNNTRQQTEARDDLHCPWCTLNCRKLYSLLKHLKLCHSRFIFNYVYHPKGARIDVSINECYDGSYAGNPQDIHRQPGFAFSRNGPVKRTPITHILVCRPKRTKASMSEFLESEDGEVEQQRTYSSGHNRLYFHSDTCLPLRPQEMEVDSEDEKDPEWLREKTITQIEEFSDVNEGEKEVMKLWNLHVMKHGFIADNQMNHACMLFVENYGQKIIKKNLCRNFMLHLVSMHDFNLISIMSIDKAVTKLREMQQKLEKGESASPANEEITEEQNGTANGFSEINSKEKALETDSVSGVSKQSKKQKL
T1 sequence (O75530 whole entry partner): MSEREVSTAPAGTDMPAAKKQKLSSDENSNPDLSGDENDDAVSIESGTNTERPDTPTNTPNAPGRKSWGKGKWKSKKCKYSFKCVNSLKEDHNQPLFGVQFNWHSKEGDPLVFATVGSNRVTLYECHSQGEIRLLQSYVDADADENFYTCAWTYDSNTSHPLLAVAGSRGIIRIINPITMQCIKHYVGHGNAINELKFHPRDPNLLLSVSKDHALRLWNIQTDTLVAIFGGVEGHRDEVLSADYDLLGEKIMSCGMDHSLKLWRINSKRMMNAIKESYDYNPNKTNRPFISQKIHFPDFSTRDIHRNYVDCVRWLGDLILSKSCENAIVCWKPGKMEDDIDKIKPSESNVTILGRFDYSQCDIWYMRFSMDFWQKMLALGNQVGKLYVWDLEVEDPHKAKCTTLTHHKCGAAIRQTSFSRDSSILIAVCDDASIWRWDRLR
T1 sequence (Q09028 whole entry partner): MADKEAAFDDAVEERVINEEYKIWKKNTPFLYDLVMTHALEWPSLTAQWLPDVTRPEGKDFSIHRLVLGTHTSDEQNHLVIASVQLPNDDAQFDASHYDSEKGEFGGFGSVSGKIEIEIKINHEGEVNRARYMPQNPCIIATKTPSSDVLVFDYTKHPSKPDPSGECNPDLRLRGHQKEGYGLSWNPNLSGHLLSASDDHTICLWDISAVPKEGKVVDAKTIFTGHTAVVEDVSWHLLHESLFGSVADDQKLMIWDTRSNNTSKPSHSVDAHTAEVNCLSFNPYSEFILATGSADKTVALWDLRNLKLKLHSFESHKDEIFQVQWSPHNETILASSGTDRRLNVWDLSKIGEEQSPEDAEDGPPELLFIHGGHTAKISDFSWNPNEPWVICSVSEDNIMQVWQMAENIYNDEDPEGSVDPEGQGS
Experimental: Experiments were performed using radiometric EZH2 enzymatic assays prepared individually or in a semi-automated fashion on a 384-well platform. For the experiments shown in Figures 3.A, 3.C, and 3.D, 4 [drawing 50] g of oligonucleosomes was used per reaction. For the experiments shown in Figures 3.C–D, 3 [drawing 51] g of PRC2 complex were added. For all other HMT assays (Figure 4, Figure 5, and Table 2) the following balanced conditions (at Km for cofactor and substrate) were used. […] The putative peptide inhibitors were tested in single point assays and in 10-point dose titrations. The total volume of the reaction mixture was 30 [drawing 55] L. Reactions were incubated for 1 hour at [drawing 56] C. Reactions terminated by the addition of 10 [drawing 57] L, 5× Laemmli Sample Buffer were loaded onto 15% Tri-Glycine-Polyacrylamide gels and resolved by PAGE. Resolved proteins were transferred to PVDF membrane at 65 V for 2 hours. Membranes were stained with CBB, destained, dried, and exposed to imaging plates for 24 hours. Images were detected using an FLA-7000 bioimaging system (Fujifilm). Reactions terminated by the addition of SAH to a final concentration of 850 [drawing 58] M were transferred to a 384-well Flashplate (Perkin Elmer) and incubated for 90 min. Liquids were aspirated and wells washed with 1×60 [drawing 59] L of wash buffer (50 mM Tris, pH 8.5, 200 mM NaCl, 0.01% NP-40). Detection of incorporated radioactivity in Flashplates was carried out using a Topcount instrument (Perkin Elmer). Potential inhibitory peptides were tested in single point assays and in 10-point dose titrations. Mechanism of Action Enzymatic Assays were performed under the same conditions and using the same protocol. However, in the Mechanism of Action Enzymatic assays the assays were performed with varied enzyme, substrate, or cofactor concentration to identify the mechanism of inhibition.
In order to assess the inhibitory capability of the candidate peptides experimentally, HMT enzymatic assays were conducted. These HMT assays assessed the EZH2-dependent transfer of tritiated methyl-groups from the methyl-donor SAM to reconstituted oligonucleosomes (see Methods for details).
as §1, with “concentration, [drawing 76]” for “concentration,”
Understanding the mechanism of action allows us to determine whether the competitive inhibition targeted by the design framework and the input biological constraints has been successful.

| Compound | IC50 ([2]; read-out: IC50) [µM] | further results |
| --- | --- | --- |
| CCC(CC)n1ccc2c(C(=O)NCc3c(C)cc(C)[nH]c3=O)cc(C#N)cc21 [EI1] |  | IC50 [1]: ~0.015 µM |
| GKAPRKQLANRKWWKNYPRDG [SQ040] | 41 ± 1.19 |  |
| GKAPRKQLAPKAATKNARATS [SQ026] | 19.6 ± 1.12 |  |
| GKAPRKQLARKNWWKNYPRDG [SQ043] | 39.7 ± 1.17 |  |
| GKAPRKQLARRKWWFNYPQNG [SQ037] | 13.6 ± 1.24 | IC50 ([2]; Figure 5, high throughput radiometric assay, SQ037 versus native and mutated peptides, value printed in the picture without unit, read-out: IC50): 8.05 µM |
| GKAPRKQLASAKKAAATPRTG [SQ010] | 54.9 ± 1.26 |  |
| GKAPRKQLASKAARAATPKTG [SQ020] |  | IC50 [2]: 34.2 ± 1.46 µM |
